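Step 1: Grow cells in 96-well plates. Step 2: Expose to compound for 48 hours at 5 concentrations. Step 3: Interpolate endpoints linearly; if unreached, use highest concentration. At the GI50, growth is halved.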 Activity calls are given as the source filed them. No stated cut-off is given here; in the data, active = GI50 up to about 1.1 µM and inactive = higher.
Assays:
Test in all cases: inhibition of tumour cell growth, NCI panel, 48 h
[1] = test system: 786-0
[2] = test system: COLO 205
[3] = test system: HOP-62
[4] = test system: HT-29
[5] = test system: IGROV-1
[6] = test system: KM12
[7] = test system: M14
[8] = test system: MCF7
[9] = test system: NCI-H23
[10] = test system: OVCAR-3
[11] = test system: OVCAR-8
[12] = test system: RPMI-8226
[13] = test system: SK-MEL-5
[14] = test system: SK-OV-3
[15] = test system: SNB-19
[16] = test system: SR
[17] = test system: T47D
[18] = test system: UACC-62
[19] = test system: OVCAR-4

Measured: GI50

COc1ccc(C2CC(c3ccccc3)=Nc3c(-c4ccccc4)nnn32)cc1 (centres undefined)
inactive: [1] > 100 µM | [2] > 100 µM | [3] 96.2 µM | [4] > 100 µM | [5] > 100 µM | [6] 46.9 µM | [7] > 100 µM | [8] > 100 µM | [9] > 100 µM | [10] 54.7 µM | [11] 37.3 µM | [12] 12.8 µM | [13] 9.27 µM | [14] > 100 µM | [15] > 100 µM | [16] 23.3 µM | [17] 10 µM | [18] 55.7 µM

Cc1[nH]n(-c2ccccc2)c(=O)c1C(N(CCc1ccccc1)C1=NCC(C)S1)(C(F)(F)F)C(F)(F)F (centres undefined)
inactive: [1] 13.9 µM | [2] 6.27 µM | [3] 24.3 µM | [4] 17.8 µM | [6] 13.1 µM | [7] 11.6 µM | [8] 10.7 µM | [9] 5.16 µM | [10] 8.77 µM | [19] 10.8 µM | [13] 7.71 µM | [14] 25.4 µM | [15] 15.5 µM | [16] 22.3 µM | [17] 5.19 µM | [18] 8.71 µM

O=C(O)CN1CCNCCN(CP(=O)(O)O)CC1
inactive: [1] 4.83 µM | [2] 2.84 µM | [3] > 100 µM | [4] 2.02 µM | [5] 4.15 µM | [6] 5.47 µM | [7] 16.6 µM | [8] 6.22 µM | [9] > 100 µM | [19] 24.6 µM | [12] 5.52 µM | [13] 4.28 µM | [14] 11.8 µM | [15] > 100 µM | [16] > 20.2 µM | [17] > 100 µM | [18] 8.69 µM

O=C1NC(NCc2ccc(F)cc2)=N/C1=C\c1ccccc1Cl
inactive: [1] 11.2 µM | [2] 17.4 µM | [3] 19.1 µM | [4] 15 µM | [5] 19.2 µM | [6] 18.1 µM | [7] 15.6 µM | [8] 19.6 µM | [10] 16.5 µM | [19] 23.9 µM | [11] 14.4 µM | [13] 13.4 µM | [14] 26.3 µM | [15] 19.8 µM | [16] 14.1 µM | [17] 5.41 µM | [18] 15.7 µM

CCOC(=O)C(=O)N/N=C1\C(=O)Nc2ccccc21
inactive: [1] > 100 µM | [2] > 100 µM | [3] > 100 µM | [5] > 100 µM | [6] > 100 µM | [7] > 100 µM | [8] > 100 µM | [9] > 100 µM | [19] > 100 µM | [11] > 100 µM | [12] > 100 µM | [13] > 100 µM | [14] > 100 µM | [15] > 100 µM | [16] > 100 µM | [17] > 100 µM | [18] > 100 µM

Cc1ccc(C(=O)N/N=C(\N=N\c2ccccc2Cl)c2ccc(N(C)C)cc2)cc1
inactive: [1] 48.3 µM | [2] 38.6 µM | [4] 33.1 µM | [5] > 100 µM | [6] 21.9 µM | [7] 42.7 µM | [8] 28.2 µM | [9] 50.7 µM | [10] 30.3 µM | [19] 7.33 µM | [11] 61.5 µM | [12] 23.7 µM | [13] 21.3 µM | [14] 20.4 µM | [15] 28.1 µM | [16] 18.1 µM | [17] 2.64 µM | [18] 4.55 µM

S=C(NC/C(Br)=C/Br)Nc1cccc2ccccc12
inactive: [1] 38.8 µM | [2] 18.5 µM | [3] 30.3 µM | [4] 34.5 µM | [5] 29.3 µM | [7] 16.8 µM | [8] 20 µM | [9] 23.5 µM | [10] 24 µM | [19] 30.3 µM | [11] 27.6 µM | [12] 15.4 µM | [13] 16.4 µM | [14] 37.5 µM | [15] 34 µM | [16] 15.4 µM | [17] 40.4 µM | [18] 24.2 µM

C[C@]12[C@@H]3CC[C@H]1[C@@H](O)C(=O)N2CC3
inactive: [1] > 100 µM | [2] > 100 µM | [3] > 100 µM | [4] > 100 µM | [5] > 100 µM | [6] > 100 µM | [7] > 100 µM | [8] > 100 µM | [9] > 100 µM | [19] > 100 µM | [11] > 100 µM | [12] > 100 µM | [13] > 100 µM | [14] > 100 µM | [15] > 100 µM | [16] > 100 µM | [17] > 100 µM | [18] > 100 µM

— ChEMBL document CHEMBL1201862, “PubChem BioAssay data set” (2004)
